As usually defined, the inhibition is the change of the read-out against control, counted positive when it falls.

Assay [1] has as its target T1, Type I 5α-Reductase from Human Scalp (Homo sapiens, UniProt P18405).
T1 construct: Scalp punch biopsies from graft recipient sites were obtained from human hair transplant procedures; from tissue; host or cells: human scalp punch biopsies (hair transplant graft recipient sites), homogenate, 100,000×g pellet
T1 sequence (P18405 1-259): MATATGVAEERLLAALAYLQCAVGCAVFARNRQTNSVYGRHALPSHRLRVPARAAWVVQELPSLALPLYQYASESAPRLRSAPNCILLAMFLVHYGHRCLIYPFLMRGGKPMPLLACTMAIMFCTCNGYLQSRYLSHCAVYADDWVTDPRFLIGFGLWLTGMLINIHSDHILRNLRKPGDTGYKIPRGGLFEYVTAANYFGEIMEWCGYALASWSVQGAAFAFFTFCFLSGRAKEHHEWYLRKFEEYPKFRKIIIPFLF
The experiment in a line: Human Type I 5α-reductase assay (conversion of [3H]-testosterone to 5α-reduced metabolites). The assay is classed as biochemical. As to conditions: 50 nM [3H]-testosterone, pH 7.5, 25°, 180 min, compared to control reaction mixtures; for inhibition at 0.3 µM: pH 7.5, 0.3 μM, read-out: percent inhibition of Type I AR.

In assay [2] the target is T2, Type II 5α-Reductase from Human Prostate (Homo sapiens, UniProt P31213).
T2 construct: The same procedure as above was used for preparations using tissue from prostate surgery; from tissue; host or cells: human prostate tissue from surgery, homogenate, 100,000×g pellet
T2 sequence (P31213 1-254): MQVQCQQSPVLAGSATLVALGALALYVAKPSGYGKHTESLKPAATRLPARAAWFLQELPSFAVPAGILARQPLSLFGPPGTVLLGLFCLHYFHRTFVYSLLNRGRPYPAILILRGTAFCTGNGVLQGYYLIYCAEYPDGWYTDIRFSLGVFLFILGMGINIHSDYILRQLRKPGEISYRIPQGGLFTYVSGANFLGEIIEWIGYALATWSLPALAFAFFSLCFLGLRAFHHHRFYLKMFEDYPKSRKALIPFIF
Nature of the assay: Human Type II 5α-reductase assay (conversion of [3H]-testosterone to 5α-reduced metabolites). It counts as biochemical. The following applies: pH 5.5, 0.3 μM; sodium acetate pH 5.5, 25°, 30 min; compared to control reaction mixtures; read-out: percent inhibition of Type II AR.

On to `CN1C(=O)CC[C@]2(C)c3ccc(Sc4ncccc4[N+](=O)[O-])cc3CC[C@@H]12` [Example 167, (+)-(4aR)-(10bR)-4-methyl-8-(3-nitro-2-pyridinylthio)-10b-methyl-1,2,3,4,4a,5,6,10b-octahydrobenzo[f]quinolin-3-one], for which the results for the inhibition at 0.3 µM in assay [1] and in assay [2] were 62% and 31%, respectively.
For `CN1C(=O)CC[C@]2(C)c3ccc(-c4cc(F)cc(F)c4)cc3CC[C@@H]12` [Example 227, (+)-(4aR)-(10bR)-4-methyl-8-(3,5-difluorophenyl)-10b-methyl-1,2,3,4,4a,5,6,10b-octahydrobenzo[f]quinolin-3-one], the inhibition at 0.3 µM in assay [1] turned out to be 97%; in assay [2] it was 25%.
In the same order, the values of `CN1C(=O)CC[C@]2(C)c3ccc(-c4ccccc4[N+](=O)[O-])cc3CC[C@@H]12` [Example 124, (+)-(4aR)-(10bR)-4-methyl-8-(2-nitrophenyl)-10b-methyl-1,2,3,4,4a,5,6,10b-octahydrobenzo[f]quinolin-3-one] are 23% and 32%.
As for `CN1C(=O)CC[C@]2(C)c3ccc(CCc4ccccc4)cc3CC[C@@H]12` [Example 280, (4aR)-(10bR)-4,10b-dimethyl-8-(2-phenylethyl)-1,2,3,4,4a,5,6,10b-octahydrobenzo[f]quinolin-3-one], the “percent inhibition of Type I AR” value in assay [1] (0.3 μM) was found to be 100%. For the same compound, the inhibition at 0.3 µM was 97% in assay [1] and 33% in assay [2].
On to `CN1C(=O)CC[C@]2(C)c3ccc(Sc4cnc5ccccc5n4)cc3CC[C@@H]12` [Example 153, (+)-(4aR)-(10bR)-4-methyl-8-(2-quinoxalinylthio)-10b-methyl-1,2,3,4,4a,5,6,10b-octahydrobenzo[f]quinolin-3-one], for which the inhibition at 0.3 µM is 49% in assay [1] and 71% in assay [2].
In the same order, the values of `CN1C(=O)CC[C@]2(C)c3ccc(C(=O)OC(c4ccccc4)c4ccccc4)cc3CC[C@@H]12` [Example 147, (4aR)-(10bR)-4,10b-dimethyl-8-diphenylmethoxycarbonyl-1,2,3,4,4a,5,6,10b-octahydrobenzo[f]quinolin-3-one] are 35% and 83%.
As to `CN1C(=O)CC[C@]2(C)c3ccc(-c4ccc(S(C)(=O)=O)cc4)cc3CC[C@@H]12` [Example 204, (+)-(4aR)-(10bR)-4-methyl-8-(4-methylsulfonylphenyl)-10b-methyl-1,2,3,4,4a,5,6,10b-octahydrobenzo[f]quinolin-3-one], the inhibition at 0.3 µM is 34% in assay [1] and 39% in assay [2].
`CN1C(=O)CC[C@]2(C)c3ccc(-c4ccc5ncsc5c4)cc3CC[C@@H]12` [Example 249, (+)-(4aR)-(10bR)-4-methyl-8-(6-benzothiazolyl)-10b-methyl-1,2,3,4,4a,5,6,10b-octahydrobenzo[f]quinolin-3-one]: the results for the inhibition at 0.3 µM in assay [1] and in assay [2] were 69% and 24%, respectively.
On to `CN1C(=O)CC[C@]2(C)c3ccc(-c4ccc5c(c4)C(=O)C(=O)N5)cc3CC[C@@H]12` [Example 223, (+)-(4aR)-(10bR)-4-methyl-8-(2,3-dioxo-5-indolinyl)-10b-methyl-1,2,3,4,4a,5,6,10b-octahydrobenzo[f]quinolin-3-one], for which the inhibition at 0.3 µM came to 36% in assay [1] and 24% in assay [2].
In the same order, the values of `CN1C(=O)CC[C@]2(C)c3ccc(-c4ccc(NC(=O)C(C)(C)C)cc4)cc3CC[C@@H]12` [Example 37, (+)-(4aR)-(10bR)-4-methyl-8-(4-t-butylcarbonylaminophenyl)-10b-methyl-1,2,3,4,4a,5,6,10b-octahydrobenzo[f]quinolin-3-one] are 72% and 58%.
In the same order, the values of `CN1C(=O)CC[C@]2(C)c3ccc(-c4ccc(C(=O)CCCCl)cc4)cc3CC[C@@H]12` [Example 221, (+)-(4aR)-(10bR)-4-methyl-8-[4-(4-chlorobutyryl)phenyl]-10b-methyl-1,2,3,4,4a,5,6,10b-octahydrobenzo[f]quinolin-3-one] are 95% and 26%.
As for `CN1C(=O)CC[C@]2(C)c3ccc(-c4ccc(Cl)c(C(F)(F)F)c4)cc3CC[C@@H]12` [Example 24, (+)-(4aR)-(10bR)-4-methyl-8-(4-chloro-3-trifluoromethylphenyl)-10b-methyl-1,2,3,4,4a,5,6,10b-octahydrobenzo[f]-quinolin-3-one], the inhibition at 0.3 µM in assay [1] was found to be 88%; in assay [2] it was 28%.
Taken in the same sequence, the figures for `Cc1ccc(Sc2ccc3c(c2)CC[C@H]2N(C)C(=O)CC[C@]32C)cc1` [Example 96, (+)-(4aR)-(10bR)-4,10b-dimethyl-8-(4-methylphenylthio)-1,2,3,4,4a,5,6,10b-octahydrobenzo[f]quinolin-3-one] were 89% and 52%.
As for `CN1C(=O)CC[C@]2(C)c3ccc(Sc4nc5c(C(C)(C)C)ccc(C(C)(C)C)c5s4)cc3CC[C@@H]12` [Example 189, (+)-(4aR)-(10bR)-4-methyl-8-[4,7-di(t-butyl)-2-benzothiazolylthio]-10b-methyl-1,2,3,4,4a,5,6,10b-octahydrobenzo[f]-quinolin-3-one], the inhibition at 0.3 µM was 84% in assay [1] and 19% in assay [2].
Taken in the same sequence, the figures for `CN1C(=O)CC[C@]2(C)c3ccc(Sc4cncc5ccccc45)cc3CC[C@@H]12` [Example 114, (4aR)-(10bR)-4,10b-dimethyl-8-(4-isoquinolinylthio)-1,2,3,4,4a,5,6,10b-octahydrobenzo[f]quinolin-3-one] were 55% and 47%.
On to `CN1C(=O)CC[C@]2(C)c3ccc(C(=O)Nc4ccccc4)cc3CC[C@@H]12` [Example 143, (+)-(4aR)-(10bR)-4-methyl-8-(phenylcarboxamido)-10b-methyl-1,2,3,4,4a,5,6,10b-octahydrobenzo[f]quinolin-3-one], for which the inhibition at 0.3 µM was determined as 63% in assay [1] and 18% in assay [2].
As to `CN1C(=O)CC[C@]2(C)c3ccc(-c4ccc([N+](=O)[O-])s4)cc3CC[C@@H]12` [Example 217, (+)-(4aR)-(10bR)-4-methyl-8-(5-nitro-2-thienyl)-10b-methyl-1,2,3,4,4a,5,6,10b-octahydrobenzo[f]quinolin-3-one], the inhibition at 0.3 µM worked out at 93% in assay [1] and 33% in assay [2].
As for `CN1C(=O)CC[C@]2(C)c3ccc(-c4c(F)c(F)c(Cl)c(F)c4F)cc3CC[C@@H]12` [Example 135, (+)-(4aR)-(10bR)-4-methyl-8-(4-chloro-2,3,5,6-tetrafluorophenyl)-10b-methyl-1,2,3,4,4a,5,6,10b-octahydrobenzo[f]-quinolin-3-one], the inhibition at 0.3 µM in assay [1] turned out to be 92%; in assay [2] it was 31%.
On to `CN1C(=O)CC[C@]2(C)c3ccc(-c4ccc(Cl)s4)cc3CC[C@@H]12` [Example 218, (+)-(4aR)-(10bR)-4-methyl-8-(5-chloro-2-thienyl)-10b-methyl-1,2,3,4,4a,5,6,10b-octahydrobenzo[f]quinolin-3-one], for which the inhibition at 0.3 µM in assay [1] was found to be 84%; in assay [2], 35%.
Consider `CN1C(=O)CC[C@]2(C)c3ccc(-c4nc5c(ccc6ccccc65)s4)cc3CC[C@@H]12` [Example 260, (+)-(4aR)-(10bR)-4-methyl-8-(2-naphtho<1,2-d>thiazolyl)-10b-methyl-1,2,3,4,4a,5,6,10b-octahydrobenzo[f]quinolin-3-one], for which the inhibition at 0.3 µM in assay [1] stood at 84%; in assay [2], 40%.
For `CN1C(=O)CC[C@]2(C)c3ccc(Sc4nc5cc(Cl)c(Cl)cc5s4)cc3CC[C@@H]12` [Example 165, (+)-(4aR)-(10bR)-4-methyl-8-(5,6-dichloro-2-benzothiazolylthio)-10b-methyl-1,2,3,4,4a,5,6,10b-octahydrobenzo[f]-quinolin-3-one], the values for the inhibition at 0.3 µM in assay [1] and in assay [2] were 61% and 74%, respectively.
In the same order, the values of `CN1C(=O)CC[C@]2(C)c3ccc(-c4ccc(Cl)c(F)c4)cc3CC[C@@H]12` [Example 219, (+)-(4aR)-(10bR)-4-methyl-8-(4-chloro-3-fluorophenyl)-10b-methyl-1,2,3,4,4a,5,6,10b-octahydrobenzo[f]quinolin-3-one] are 91% and 30%.
In the same order, the values of `CN1C(=O)CC[C@]2(C)c3ccc(-c4cccc5cccnc45)cc3CC[C@@H]12` [Example 239, (+)-(4aR)-(10bR)-4-methyl-8-(8-quinolinyl)-10b-methyl-1,2,3,4,4a,5,6,10b-octahydrobenzo[f]quinolin-3-one] are 42% and 27%.
In the same order, the values of `CCCCc1ccc(-c2ccc3c(c2)CC[C@H]2N(C)C(=O)CC[C@]32C)cc1` [Example 76, (+)-(4aR)-(10bR)-4-methyl-8-(4-n-butylphenyl)-10b-methyl-1,2,3,4,4a,5,6,10b-octahydrobenzo[f]quinolin-3-one] are 83% and 46%.

The record behind these values is patent publication US5622962A, “5α-reductase inhibitors” (priority 1995, dated 1997).
